Laboratory results as given in patent publication US20230331792A1, “NEW MULTI-FUNCTIONAL OLIGOPEPTIDES” (ENLITISA (SHANGHAI) PHARMACEUTICAL CO., LTD., priority 2019, published 2023).
Bridge positions count the residues as written; N and C are the ends. Square brackets hold non-standard residues; d marks the D form. Ends that are not written are not given here. I, II: the chains in the order shown. Dopa = N[C@@H](Cc1ccc(O)c(O)c1)C(=O)O; Hyp = O=C(O)[C@@H]1C[C@@H](O)CN1

Experiments:
C57BL/6 mice = assay: Air pouch model (carrageenan-induced acute inflammation); type: in vivo; set-up: key to Inflammation score / Edema score: 1 = mild, 2 = moderate, 3 = severe; conditions: dexamethasone 400 μg/mouse
Procedure: Healthy adult male C57BL/6 mice weighing between 20 and 30 g were supplied by Changzhou Cvens Experimental Animal Co. Ltd. Prior to any experiments being conducted, the mice were housed under standardized conditions (at a constant temperature or 22±2° C., with alternating 12-hour periods of light and darkness), and were fed on a standard mouse diet with water, for about a week. The mice were randomly divided into 9 groups as described in Table 4, with 7 mice in each group.
General anaesthesia was induced using intraperitoneal delivery of 3% chloral hydrate (Sinopharm Chemical Reagent Co., Ltd., Shanghai, China); 1 mL/10 g of body weight). The hair of the entire dorsum was shaved and depilated one day before sterile air injection.
Air pouches were produced by subcutaneous injection of sterile air (5 mL) into the intrascapular area of the mice. After three days, another injection of air (3 mL) was performed to maintain the pouches. In order to induce acute inflammation, three days after the second injection, animals received an injection of sterile carrageenan solution (CP Kelco, Taixing, Jiangsu Province, China; 1%, 0.5 mL; produced by adding 0.1 g of carrageenan powder into a beaker containing 10 mL of 0.9% saline solution and stirring). Mice were pre-treated with test samples or vehicle 1 hour before and 23 hours after the carrageenan injection into the subcutaneous air pouch. Animals were sacrificed 24 hours after the carrageenan injection.
Skin biopsies were taken from the air pouches. A part of the biopsy was fixed in formalin (produced by adding ultra-pure water to 50 mL of a 40% formaldehyde solution (Nanchang Rain Dew Experimental Equipment Co., Ltd., Nanchang, […] Provence, China) up to a total volume of 500 mL) and analyzed by histological embedding in paraffin wax, sectioning and staining.
The histological specimens were analyzed, and an inflammation score and an edema score were estimated. The inflammation scores were estimated by observing heamatoxylin and eosin (HE) stained slices under an optical microscope. Scores (between 1 to 3 points) were given according to the perceived inflammation level (e.g. in cases where only a small amount of inflammatory cells scattered in the area: 1 point was given (mild); in cases where many inflammatory cells were observed: 2 points were given (moderate); and, in cases with diffuse infiltration: 3 points were given (severe)). A similar scoring system was employed for edema levels (3 points for most severe and 1 point for mild) after overall observation.
After conducting some preliminary experiments to validate the model, an experiment was conducted in which mice were treated by administering test samples or vehicle in accordance with Table 4 below. Compound A and Compound B were dissolved in saline at concentrations indicated in Table 4 below (L=low dose, M=medium dose, H=high dose).
Compound A and Compound B were synthesized as described in Examples 8 and 7 above, respectively. The peptide powders were stored at −20° C. prior to use. Dexamethasone (Dex) was obtained from Shanghai Aladdin Bio-Chem Technology Co., Ltd., Shanghai, China.

in vivo = conditions: SD, rat
Procedure: The rats were treated by administering test samples.
The rats were anesthetized by 2% isoflurane inhalation. The rats were placed in the supine position, the rectum end stool was extruded and 75% alcohol cotton ball was used to disinfect the anal periphery skin area.
A 2 mL syringe was used to draw back the air bag cavity to ensure that there was no air in the air bag after water filling. The catheter (2-WAY 8Ch/Fr3-5 mm) was inserted into the rats anus at a depth of about 3 cm (2 cm length from the end of the balloon; the tip of the catheter was cut below the position of the urethral catheter tip, and shortened as much as possible while maintaining the integrity of the air cavity. The guide wire was removed, the urethral catheter was sealed with neutral glass glue while ensuring smooth sealing end to reduce the damage to the rectal mucosa).
While the perianal skin was held to fix the catheter and the gavage needle, 1 mL of water was injected with a 2 mL syringe into the airbag cavity in order to expand it, and the needle was then quickly released to observe whether there was gel leakage.
After injection, adhesive tape was wrapped around the tail root to fix the catheter (the catheter was litigated about 3-5 cm from the anus, then cut off after ligation, and an adhesive tape was wrapped around the tail root for fixation. The fixation of the pressure-sensitive adhesive tape is based on the standard of non-looseness of the urinary catheter, which should not be too tight and cause discomfort for animals to bite. The catheter should be fixed by tape twice: the catheter should be knotted the first time, while the remaining catheter should be fixed at the end of the tail the second time. The 3 cm scale on the catheter should be at the anus, and the catheter should not be taken out when the knot is tied). The rats were put back into the cage after administration.
An anal plug was maintained in the rectum for 4 h to extend the retention time of the drug in the animal body. The anal plug dropped within 4 h after the drug was administered, and the approximate time period of the drop was recorded.
Blood samples were processed by coating all centrifuge tubes with EDTA-K2 and storing them either in a refrigerator (2-8° C.) or a cooler filled with ice, protected from light prior to use; the blood that was collected was transferred into the centrifuge tubes and stored in ice box protected from light after having been mixed manually by reversing the tubes at least 5 times. The samples were subsequently centrifuged at 1800 g for 10 minutes at 2 to 8° C. within 2 hours from blood collection. After the centrifugation, the collected plasma samples were transferred into newly labeled centrifuge tubes, aliquoted into two sets, and stored below −70° C. away from light.
AUC, Cmax, Tmax, and any other parameters as needed, were calculated using WinNonlin software. Microsoft Office Excel was used for data statistical analysis, including mean, standard deviation (SD), and coefficient of variation (CV), etc. The difference in pharmacokinetic parameters between the two groups was compared.

person two = assay: Ulcerative colitis, patient case; type: in vivo, human; conditions: oral 5-aminosalicylic acid for 3 days
Excerpt: person two was diagnosed with an acute attack of ulcerative colitis. […] After this, they were given the same Compound C gel as described in Example 41 above, at the same dose, 3 times over the first two days. The frequent with which they had to go to the toilet reduced to 3 to 4 times a day.

[1] = Pharmacokinetics of montelukast with and without sMAP; conditions: SD, rat, plasma, 0.2 mg
SD rats = assay: Experimental gastric ulcer model (anhydrous alcohol); type: in vivo; conditions: omeprazole 2 mg/mL, 4 mg/kg oral gavage once per day for 30 days
Procedure: SPF grade SD rats were used in this experiment, with 10 rats in each group. According to an evaluation method of health food for gastric ulcer issued by Chinese State Food and Drug Administration, the protective effect of Compound B on acute gastric ulcers induced by anhydrous alcohol was observed after continuous gavage for 30 days.
Omeprazole enteric-coated capsules (20 mg/capsule; Heilongjiang Norgas Pharmaceutical Co., Ltd., China) were opened and the powder was dissolved in water to make a 2 mg/mL solution. Compound B (see Example 7 above) powder was dissolved in water to make two solutions with concentrations of 0.25 mg/mL and 0.75 mg/mL. Administration volumes were […].
All drugs were administrated as shown in Table 13 by oral gavage for 30 consecutive days, once per day. The rats had free access to water. On the 30th day, rats were fasted for 24 hours after the last drug administration. On the 31st day, 1.0 mL/rat of absolute ethanol was given by gavage to each rat in all of the experimental groups except the control group.
1 hour later, all of the rats were sacrificed and dissected to expose the intact stomach, followed by ligation of the pylorus. 10% formaldehyde solution was administered into the stomach by perfusion and fixed for 20 minutes. The stomach was dissociated after fixation and cut open along the greater curvature. The stomach contents were washed off the lining with saline to reveal the gastric mucosa.
The length and width of gastric mucosal bleeding were measured with a Vernier calliper under a stereo microscope or by the naked eye.

[2] = system: Human Influenza A Virus H1N1; conditions: virus mixed with drug 1 hour, 2-128 μg/mL; Vero cells; viral RNA

C[C@@H]1C[C@H]2[C@@H]3CCC4=CC(=O)C=C[C@]4(C)[C@@]3(F)[C@@H](O)C[C@]2(C)[C@@]1(O)C(=O)CO [Dex, Dexamethasone, reference compound]
Sum of the scores (C57BL/6 mice): 2.14
Inflammation score (C57BL/6 mice; 1 h before and 23 h after carrageenan, histology, score 1-3): 0.57
Edema score (C57BL/6 mice; histology, score 1-3): 1.57

Nc1ccc(O)c(C(=O)O)c1 [Mesalazine, 5-aminosalicylic acid]
AUC(0-t) (in vivo; female): 38900 ng·h/mL
Cmax (in vivo; female): 13800 ng/mL
Tmax (in vivo; female): 1.83 h
AUC(0-t) (in vivo; male): 56100 ng·h/mL
Cmax (in vivo; male): 17500 ng/mL
Tmax (in vivo; male): 1.67 h
symptoms of ulcerative colitis (person two): symptoms did not change

CC(C)(O)c1ccccc1CC[C@@H](SCC1(CC(=O)O)CC1)c1cccc(/C=C/c2ccc3ccc(Cl)cc3n2)c1 [Montelukast, montelukast sodium]
AUC(0-t) ([1]; female): 229 ng·h/mL
Cmax ([1]; female): 156 ng/mL
Tmax ([1]; female): 0.5 h
half-life ([1]; female): 2.3 h
AUC(0-t) ([1]; male): 238 ng·h/mL
Cmax ([1]; male): 151 ng/mL
Tmax ([1]; male): 0.5 h
half-life ([1]; male): 1.8 h

COc1ccc2[nH]c([S+]([O-])Cc3ncc(C)c(OC)c3C)nc2c1 (centres unmarked) [Omeprazole, reference compound]
Damage score (SD rats): 20

I: AKPS[Dopa][Hyp]T[Dopa][Hyp]KKK / II: AKPS[Dopa][Hyp]T[Dopa][Hyp]KK / III: AKPS[Dopa][Hyp]T[Dopa][Hyp]K / IV: AKPS[Dopa][Hyp]T[Dopa][Hyp]K (amide I:11-IV:C, I:12-II:C, II:11-III:C) [Compound C, [(Ala-Lys-Pro-Ser-DOPA-Hyp-Thr-DOPA-Hyp-Lys)2-Lys]2-Lys]
IC50 (virus inhibition rate) [2]: > 32 µg/mL
